Drawing on ChEMBL document CHEMBL1201862, “PubChem BioAssay data set” (2004), this text covers EC50 and AC50 for 40 compounds.

“And” between values parts separate entries of the source, which are not always exact repeats. Identical values can stand only once. The source made the active and inactive calls.

Among the targets are Cytochrome P450 2D6 (Homo sapiens, UniProt P10635); Cytochrome P450 2C9 (Homo sapiens, UniProt P11712); Cytochrome P450 3A4 (Homo sapiens, UniProt P08684).
Experiment [1] has as its target T1, RNA-binding protein pos-1 (Caenorhabditis elegans, UniProt G5EF15).
T1 sequence (G5EF15 whole entry): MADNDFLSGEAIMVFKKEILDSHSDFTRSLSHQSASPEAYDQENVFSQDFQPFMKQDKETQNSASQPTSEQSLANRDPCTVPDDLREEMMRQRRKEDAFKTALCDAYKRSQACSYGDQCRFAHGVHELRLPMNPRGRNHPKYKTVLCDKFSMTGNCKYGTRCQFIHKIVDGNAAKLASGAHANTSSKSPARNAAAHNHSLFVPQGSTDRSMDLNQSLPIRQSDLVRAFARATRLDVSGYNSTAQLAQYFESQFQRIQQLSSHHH
The experiment can be described thus: inhibitors of POS-1/mex-3 RNA binding, dose response, biochemical, fluorescence polarization (AID 1964).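 Also: purified POS-1 fused to maltose binding protein made in E. coli; potency of compounds blocking POS-1 binding to fluorescent RNA.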

Experiment [2] addresses T2, Zinc finger protein mex-5 (Caenorhabditis elegans, UniProt Q9XUB2).
T2 sequence (Q9XUB2 whole entry): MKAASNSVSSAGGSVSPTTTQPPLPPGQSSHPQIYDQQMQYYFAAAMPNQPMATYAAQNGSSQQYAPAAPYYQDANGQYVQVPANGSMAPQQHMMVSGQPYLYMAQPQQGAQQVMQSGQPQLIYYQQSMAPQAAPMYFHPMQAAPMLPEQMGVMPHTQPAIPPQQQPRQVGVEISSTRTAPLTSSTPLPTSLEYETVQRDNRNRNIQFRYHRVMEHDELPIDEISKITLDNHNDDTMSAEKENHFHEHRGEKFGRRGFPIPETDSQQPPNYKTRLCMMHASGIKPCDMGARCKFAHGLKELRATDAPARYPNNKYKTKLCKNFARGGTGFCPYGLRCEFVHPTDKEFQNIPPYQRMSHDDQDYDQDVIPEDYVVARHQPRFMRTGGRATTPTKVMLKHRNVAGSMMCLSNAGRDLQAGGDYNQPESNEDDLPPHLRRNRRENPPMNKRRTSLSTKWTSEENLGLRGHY
The experiment can be described thus: MEX-5/TCR-2 RNA interaction inhibitors, dose response, biochemical, C. elegans, fluorescence polarization (AID 1960).

Another experiment deals with Cytochrome P450 2C19 (Homo sapiens, UniProt P33261). The experiment can be described thus: Cytochrome panel assay with activity outcomes. Panel member name: p450-cyp2c19 Compounds with AC50 equal or less than 10 uM are considered active. It is filed as functional. The following applies: read-out: AC50.
The next experiment has as its target T3, Cytochrome P450 1A2 (Homo sapiens, UniProt P05177).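 Also: PubChem cytochrome P450 panel assay, CYP1A2 panel member.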
T3 sequence (P05177 whole entry): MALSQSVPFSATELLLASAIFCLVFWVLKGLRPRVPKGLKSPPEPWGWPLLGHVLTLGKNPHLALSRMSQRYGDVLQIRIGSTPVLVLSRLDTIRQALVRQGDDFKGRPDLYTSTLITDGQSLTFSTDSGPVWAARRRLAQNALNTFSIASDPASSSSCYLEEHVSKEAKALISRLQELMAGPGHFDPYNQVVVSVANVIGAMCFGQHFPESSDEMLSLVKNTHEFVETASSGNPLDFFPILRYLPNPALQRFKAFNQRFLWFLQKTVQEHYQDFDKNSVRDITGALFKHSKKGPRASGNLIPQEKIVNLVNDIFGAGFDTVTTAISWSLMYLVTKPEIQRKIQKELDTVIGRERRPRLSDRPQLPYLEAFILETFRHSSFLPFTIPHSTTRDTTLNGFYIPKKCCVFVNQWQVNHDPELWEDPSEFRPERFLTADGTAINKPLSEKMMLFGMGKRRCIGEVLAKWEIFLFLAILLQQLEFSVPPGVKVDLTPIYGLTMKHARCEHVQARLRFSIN

The target of experiment [3] is T4, Heat shock factor protein 1 (Mus musculus, UniProt P38532).
T4 sequence (P38532 whole entry): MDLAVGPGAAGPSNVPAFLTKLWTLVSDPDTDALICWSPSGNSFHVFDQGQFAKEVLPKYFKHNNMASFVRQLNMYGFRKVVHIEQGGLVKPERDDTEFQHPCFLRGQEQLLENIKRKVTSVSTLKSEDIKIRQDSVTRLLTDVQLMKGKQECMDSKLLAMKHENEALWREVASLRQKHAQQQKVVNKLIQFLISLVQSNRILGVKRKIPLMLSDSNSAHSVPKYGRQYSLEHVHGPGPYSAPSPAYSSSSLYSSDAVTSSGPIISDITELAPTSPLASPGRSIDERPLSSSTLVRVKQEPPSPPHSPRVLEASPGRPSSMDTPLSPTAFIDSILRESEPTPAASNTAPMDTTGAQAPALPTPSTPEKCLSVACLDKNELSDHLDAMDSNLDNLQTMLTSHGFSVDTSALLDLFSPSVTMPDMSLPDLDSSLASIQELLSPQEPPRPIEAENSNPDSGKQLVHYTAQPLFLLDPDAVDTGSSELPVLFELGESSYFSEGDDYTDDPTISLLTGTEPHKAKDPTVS
The experiment can be described thus: HSF1 potentiators in luciferase reporter cells, confirmation, cell-based, NIH3T3, luminescence, dose retest (AID 435004).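 Also: stress induced by proteasome inhibitor MG132 added 30 min after compound; luciferase reporter driven by HSF1 response element in NIH3T3 cells; actives raise luminescence as potentiators of the MG132 stress response.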 In kind it is functional.

Experiment [4] can be described thus: inhibitors of firefly luciferase expression or activity, dose response, H4 neuroglioma cells, luminescence (AID 1990). It is filed as functional, cell-based.
Experiment [5] can be described thus: inhibitors of SNCA 5'UTR-driven reporter translation, confirmation, H4 neuroglioma cells, luminescence (AID 1988). In kind it is functional, cell-based.

Cytochrome P450 2D6, sequence (P10635 whole entry): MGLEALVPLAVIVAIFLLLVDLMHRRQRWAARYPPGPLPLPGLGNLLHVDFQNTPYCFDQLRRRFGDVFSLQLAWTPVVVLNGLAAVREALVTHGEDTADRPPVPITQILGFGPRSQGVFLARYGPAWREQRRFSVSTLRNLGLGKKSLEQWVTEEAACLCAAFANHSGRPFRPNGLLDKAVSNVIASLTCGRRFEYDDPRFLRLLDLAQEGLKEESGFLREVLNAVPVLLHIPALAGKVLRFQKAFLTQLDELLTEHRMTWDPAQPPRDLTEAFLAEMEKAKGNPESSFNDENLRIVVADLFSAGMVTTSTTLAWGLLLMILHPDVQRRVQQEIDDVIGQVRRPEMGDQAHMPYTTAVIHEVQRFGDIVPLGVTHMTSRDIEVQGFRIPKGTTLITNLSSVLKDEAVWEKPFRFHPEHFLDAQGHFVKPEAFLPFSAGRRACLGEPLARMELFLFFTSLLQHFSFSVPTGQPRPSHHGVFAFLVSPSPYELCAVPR
Cytochrome P450 2C9, sequence (P11712 whole entry): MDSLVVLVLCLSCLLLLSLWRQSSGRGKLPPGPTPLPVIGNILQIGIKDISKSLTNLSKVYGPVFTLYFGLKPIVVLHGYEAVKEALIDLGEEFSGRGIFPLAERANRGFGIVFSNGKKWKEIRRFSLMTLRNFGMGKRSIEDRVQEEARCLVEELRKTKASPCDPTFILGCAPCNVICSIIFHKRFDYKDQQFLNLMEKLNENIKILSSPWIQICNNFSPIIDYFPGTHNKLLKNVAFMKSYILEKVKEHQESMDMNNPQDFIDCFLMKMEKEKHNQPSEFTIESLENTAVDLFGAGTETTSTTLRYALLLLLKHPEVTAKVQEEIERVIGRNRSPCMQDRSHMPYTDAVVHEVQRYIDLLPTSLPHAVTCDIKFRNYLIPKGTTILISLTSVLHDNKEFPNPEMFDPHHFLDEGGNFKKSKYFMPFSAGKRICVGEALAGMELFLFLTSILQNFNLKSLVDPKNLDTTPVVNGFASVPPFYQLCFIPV
Cytochrome P450 2C19, sequence (P33261 whole entry): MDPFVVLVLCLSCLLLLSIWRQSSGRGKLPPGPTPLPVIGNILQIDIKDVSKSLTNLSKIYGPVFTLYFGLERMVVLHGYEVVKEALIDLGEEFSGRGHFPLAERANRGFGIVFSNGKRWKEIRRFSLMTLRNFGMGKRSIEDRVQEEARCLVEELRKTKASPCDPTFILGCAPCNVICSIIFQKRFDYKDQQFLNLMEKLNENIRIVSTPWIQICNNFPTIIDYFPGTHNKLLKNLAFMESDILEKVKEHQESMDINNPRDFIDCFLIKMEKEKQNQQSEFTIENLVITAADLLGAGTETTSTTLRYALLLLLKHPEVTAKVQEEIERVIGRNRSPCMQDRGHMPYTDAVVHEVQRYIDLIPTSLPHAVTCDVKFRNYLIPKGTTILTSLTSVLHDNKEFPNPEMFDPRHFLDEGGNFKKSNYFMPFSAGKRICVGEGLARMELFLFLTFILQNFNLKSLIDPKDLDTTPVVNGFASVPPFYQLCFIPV
Cytochrome P450 3A4, sequence (P08684 whole entry): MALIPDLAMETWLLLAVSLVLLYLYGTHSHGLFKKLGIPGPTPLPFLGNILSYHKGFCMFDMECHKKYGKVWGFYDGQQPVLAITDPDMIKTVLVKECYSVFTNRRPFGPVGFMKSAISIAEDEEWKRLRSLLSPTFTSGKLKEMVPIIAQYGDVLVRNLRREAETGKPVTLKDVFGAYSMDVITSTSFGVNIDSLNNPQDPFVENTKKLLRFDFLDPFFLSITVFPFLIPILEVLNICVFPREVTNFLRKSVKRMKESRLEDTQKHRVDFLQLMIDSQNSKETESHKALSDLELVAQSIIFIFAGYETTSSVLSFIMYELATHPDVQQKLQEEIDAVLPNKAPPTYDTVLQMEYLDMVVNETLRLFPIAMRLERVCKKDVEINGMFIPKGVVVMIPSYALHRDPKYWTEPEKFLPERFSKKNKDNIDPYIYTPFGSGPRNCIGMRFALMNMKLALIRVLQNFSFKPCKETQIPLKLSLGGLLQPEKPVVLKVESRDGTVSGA

Consider `COc1ccc(C=C2C(=O)OC(C)(C)OC2=O)cc1OC`, for which the EC50 in [1] and in [2] was > 300 µM (not active) each time.
`Cc1c(N/C=C2\C(=O)NC(=O)N(Cc3ccco3)C2=O)c(=O)n(-c2ccccc2)n1C`: the EC50 in experiment [1] and in experiment [2] was > 300 µM (not active) throughout.
Turning to `CCCCC1=CC2=C(c3ccco3)C(=O)C(C)(OC(=O)c3ccc(OC)cc3)C(=O)C2=CN1CCN1CCOCC1` (stereo not drawn), the EC50 is 95.7 µM (active) in [1] and 42.2 µM (active) in experiment [2].
As for `COc1ccc2c(c1)C1C=CCC1C(c1cc3c(cc1Br)OCO3)N2` (stereo not drawn), the EC50 was > 300 µM (not active) in experiment [1] and 47.9 µM (active) in experiment [2].
With `CCN(CCCl)Cc1ccccc1Br`, the values for the AC50 at Cytochrome P450 2C19, at Cytochrome P450 2D6 and at Cytochrome P450 1A2 were 39.8 µM (inconclusive), 12.6 µM (inconclusive) and 15.8 µM (inconclusive), respectively.
Regarding `COc1ccc(NC(=O)CSc2nc(C)c3c(c2C#N)CCCC3)cc1`, the results for the AC50 on Cytochrome P450 2D6 and at Cytochrome P450 2C9 were 2.24 µM (inconclusive) and 8.91 µM (inconclusive), respectively.
`CCC(C)C(NC(=O)OCc1ccccc1)C(=O)OCN1C(=O)c2ccccc2C1=O` (stereo not drawn): the half-maximal activity concentration (AC50) at Cytochrome P450 2D6 is 0.631 µM (inconclusive).
As to `C[N+]1(C)CCc2cc3c(cc2[C@@H]1[C@@H]1OC(=O)c2c1ccc1c2OCO1)OCO3`, on Cytochrome P450 2D6, the AC50 is 31.6 µM (inconclusive).
Regarding `Cn1ncc2c(NNC(=O)Cc3ccccc3)ncnc21`, the EC50 in [1] was > 300 µM (not active); in experiment [2], 10.5 µM (active).
In the case of `CCC1(C)CC(CCNS(=O)(=O)c2ccc(C)cc2)(c2ccc(C)cc2)CCO1` (stereo not drawn), the AC50 at Cytochrome P450 2D6 was 28.2 µM (inconclusive).
Same read-out and setting: as for `Cc1noc(C)c1-c1ccc2ncnc(N(C)Cc3ccco3)c2c1`, the figure is 20 µM (inconclusive).
Regarding `O=C1NCC2=C1C(c1ccc(Br)cc1)Nc1ccccc1N2` (stereo not drawn), the EC50 in experiment [3] was > 260 µM (inactive). Besides, the AC50 at Cytochrome P450 2D6 is 2.24 µM (inconclusive); at Cytochrome P450 3A4 it was 25.1 µM (inconclusive).
As to `O=C(CN1CCOCC1)Nc1cccc(Cl)c1Cl`, the EC50 in [4] and in experiment [5] was > 120 µM (not active) in each case.
As to `O=c1cnc2cnc(N3CCOCC3)nc2n1Cc1cccs1`, the AC50 is 31.6 µM (inconclusive) on Cytochrome P450 2C19, 25.1 µM (inconclusive) on Cytochrome P450 2D6, 15.8 µM (inconclusive) on Cytochrome P450 3A4 and 31.6 µM (inconclusive) on Cytochrome P450 2C9.
On to `Cc1cccc(C)c1NC(=O)/C(C#N)=C/c1cccs1`, for which the AC50 on Cytochrome P450 2D6 was 6.31 µM (inconclusive).
With `C=CCn1cc(C=C2C(=O)NC(=O)NC2=O)c2ccccc21`, the EC50 in experiment [1] was > 300 µM (not active); in [2], 112 µM (inconclusive).
For `O/C(=C(\C([S-])=NCc1ccco1)[n+]1ccccc1)c1ccccc1Br` the same measures were > 300 µM (not active) and 58.4 µM (active).
Turning to `CN/C(=N/C#N)NCCSC[C@H]1N=CN=C1C`, at Cytochrome P450 2D6, the AC50 is 10 µM (inconclusive).
On to `CSC(=Nc1cccc(Cl)c1C)NS(=O)(=O)c1cccs1`, for which the EC50 in experiment [1] and in experiment [2] was > 300 µM (not active) each time.
For the compound `COc1ccc(OC)c(S(=O)(=O)NC2CCN(Cc3ccccc3)CC2)c1`, the EC50 in [1] and in [2] was > 300 µM (not active) in each case.
In the case of `CCCC[C@@H]1C[C@H]1C(NC(=O)c1ccco1)c1ccc(C(=O)OC)cc1` (stereo partly drawn), the AC50 on Cytochrome P450 2D6 was 25.1 µM (inconclusive).
As for `C=CCNC(=O)/C(=C\C=C\c1ccccc1)NC(=O)c1ccc(OCCCC)cc1`, the AC50 on Cytochrome P450 2D6 is 4.47 µM (inconclusive).
Take `CC1C2(C)OC(=N)C(C#N)(C(C)O2)C1(C#N)C#N` (stereo not drawn): the EC50 in experiment [1] is > 300 µM (not active); in experiment [2] it was 16 µM (active).
`COc1cccc(NC(=O)c2ccccc2Br)c1`: the EC50 in experiment [1] and in experiment [2] was > 300 µM (not active) each time.
As to `COc1ccccc1-c1cncnc1NCc1cccnc1`, the AC50 at Cytochrome P450 2D6 is 39.8 µM (inconclusive).
Take `O=C(C1CCC(=O)N1Cc1ccccc1Cl)N1CCN(c2ccc(F)cc2)CC1` (stereo not drawn): the AC50 on Cytochrome P450 2C19 is 20 µM (inconclusive); on Cytochrome P450 2D6 it was 15.8 µM (inconclusive); on Cytochrome P450 1A2, 2.51 µM (inconclusive); at Cytochrome P450 3A4 it was 12.6 µM (inconclusive); at Cytochrome P450 2C9, 25.1 µM (inconclusive).
For `Cc1cc(/C=C2\C(=O)NC(=O)N(c3ccc(F)cc3)C2=O)c(C)n1-c1ccc(C(=O)O)cc1`, the EC50 in experiment [1] and in experiment [2] was > 300 µM (not active) in each case.
As to `CCn1c(SCc2cccc(C)c2)nnc1-c1ccccc1`, the AC50 at Cytochrome P450 2D6 was 15.8 µM (inconclusive); on Cytochrome P450 3A4 it was 3.16 µM (inconclusive); on Cytochrome P450 2C9, 35.5 µM (inconclusive).
Consider `O=C(c1ccco1)N1CCC2(CC1)CCN(c1ccccc1)CC2`, for which the AC50 at Cytochrome P450 2D6 is 25.1 µM (inconclusive).
Take `CCOC(=O)c1c(-n2c(C)cc(/C=C3/C(=O)NC(=O)N(CC)C3=O)c2C)sc2c1CCCC2`: the figures for the EC50 in experiment [1] and in [2] were 25.1 µM (active) and 29.8 µM (active), respectively.
For `CC(C)(C)c1ccc(OCc2ccc(C(=O)Nc3cccnc3)o2)cc1` the same measures were > 300 µM (not active) and > 300 µM (not active).
For `COc1cc(OC)cc(C(=O)NC(=S)NCCc2ccccc2)c1`, at Cytochrome P450 2D6, the AC50 was 10 µM (inconclusive).
Same read-out and setting: as for `CC(=O)Nc1c(S(=O)(=O)c2ccccc2)c2nc3ccccc3nc2n1Cc1ccccc1`, the figure is 25.1 µM (inconclusive).
`CN(Cc1ccco1)c1ncncc1-c1ccccc1C(F)(F)F`: the AC50 at Cytochrome P450 2D6 is 20 µM (inconclusive); on Cytochrome P450 1A2, 12.6 µM (inconclusive).
Take `O=C(c1cccc(F)c1)N1CCC[C@@]2(CCN(C(c3ccccc3)c3ccccc3)C2)C1`: the concentration at half-maximal activity (AC50) on Cytochrome P450 2D6 was 12.6 µM (inconclusive).
Consider `C#CCCCCCCCCCCCCCCCC(=O)O`, for which the AC50 on Cytochrome P450 2C19 was 25.1 µM (inconclusive); on Cytochrome P450 2D6, 20 µM (inconclusive).
`C[N+]1(NCC[N@@+]2(C)CCc3ccccc3C2)CCCCC1`: the AC50 on Cytochrome P450 2D6 is 1.58 µM (inconclusive).
Consider `C[C@H](NC(C)(C)C)C(=O)c1cccc(Cl)c1`, for which the half-maximal activity concentration (AC50) at Cytochrome P450 2C19 was 15.8 µM (inconclusive) and 3.16 µM (inconclusive); on Cytochrome P450 2D6, 31.6 µM (inconclusive) and 6.31 µM (inconclusive).
Consider `Cc1cccc(C)c1NC(=O)NN=C1CCCCC1`, for which the EC50 in experiment [1] and in experiment [2] was > 300 µM (not active) each time.
In the case of `Cc1ccc(S(=O)(=O)N[C@@H](CCCCN)C(=O)CCl)cc1`, the AC50 at Cytochrome P450 2D6 was 25.1 µM (inconclusive).
